Laboratory results from patent US20130156819A1, “ISOLATION OF MESENCHYMAL STEM CELLS” (Baden-Württemberg Stiftung gGmbH, priority 2010, published 2013).
Square brackets hold non-standard residues; d marks the D form. Ends that are not written are not given here. Orn = NCCC[C@H](N)C(=O)O; DOA = not defined here; Doa = not defined here

How the values were obtained:
fibroblasts = assay: Adhesion of fibroblasts to BSA-coupled peptide microarrays (MSA technology); assay type: cell-based, human; conditions: peptide coupled to bovine serum albumin, incubation two hours, FIG. 3
Description: (§1) The adhesion of cells to peptides was also measured using the MSA™ technology (see Kuschel et al., 2006) as above in example 1. Instead of the extracellular matrix proteins, however, peptides coupled to bovine serum albumin were printed in the form of microarrays (8×8 microspots) onto the nitrocellulose layer, and then the remaining surface was sealed. For incubation with cells, small silicone chambers were placed on the coated slides, and incubated with MSCs or fibroblasts. After incubation for two hours, the non-adherent cells were washed away.
(§2) Adherent cells were made visible on the white nitrocellulose film by staining with Coomassie Blue and were evaluated in a motorized photomicroscope: the number of blue cells or the color intensity per spot is measured and transferred to tables for evaluation.
(§3) Evaluation of these arrays using the semi-automatic photomicroscope gave the relative binding strength on PLL (standardized to 100%, positive control) and BSA (standardized to 0%, negative control) for the peptides tested in each case.

MSCs = assay: Adhesion of MSCs to BSA-coupled peptide microarrays (MSA technology); assay type: cell-based, human; conditions: peptide coupled to bovine serum albumin, incubation two hours, FIG. 2
Description: as §1, §2, §3

[1] = test system: human mesenchymal stem cells (MSC); assay: Adherence of MSCs on immobilized matrix proteins (Multiple Substrate Array chip); assay type: cell-based; conditions: immobilized protein on MSA chip, 20 000 cells/test chamber, FIG. 1
Description: The adherence of human mesenchymal stem cells (MSC, samples 5 and 6 in FIG. 1) and human fibroblasts (samples 1 to 4 in FIG. 1) on matrix proteins was investigated in a comparative test. The investigation was carried out using a chip (Multiple Substrate Array (MSA®)), on which the proteins were immobilized. The procedure used as such was as described in Kuschel et al., “Cell adhesion profiling using extracellular matrix protein microarrays”, Biotechniques 40: 523-531 (2006).
MSCs were enriched from bone marrow by density gradient centrifugation, cultivated as an adherent population in MSC-expansion medium, and harvested. The differentiation potential was tested on an aliquot and adipogenic, chondrogenic and osteogenic differentiation was confirmed. Therefore the cells fulfill the physiological requirements for MSCs (M. Dominici et al. 2006, Cytotherapy, 8: 315 ff). […]
Fibroblasts were isolated from the synovial membrane and expanded as described (Aicher et al. 1994 J. Immunol. 152: 5940 ff). The cells were harvested, washed, counted and in each case 20 000/test chamber were investigated using MSA™ chip technology for adherence to proteins. […] Cells adhering to the proteins were fixed chemically and their nuclei were marked with dye, for quantitation of the number of adherent cells per microspot of protein. […]

| Substance | adhesion of fibroblasts to the peptide (fibroblasts) | adhesion of MSCs to the peptide (MSCs) | binding of the MSCs to the protein compared with binding of fibroblasts [1] |
| --- | --- | --- | --- |
| YIIR-OH (listed as Homo sapiens) [No. 34] | not that of fibroblasts | make the adhesion of MSCs possible |  |
| GF-Orn-GER-OH (GF[Orn]GER-OH; N-terminus assumed; SMILES N=C(N)NCCC[C@H](NC(=O)[C@H](CCC(=O)O)NC(=O)CNC(=O)[C@H](CCCN)NC(=O)[C@H](Cc1ccccc1)NC(=O)CN)C(=O)O) [No. 1] | not that of fibroblasts | make the adhesion of MSCs possible |  |
| EILDV-OH (listed as Homo sapiens) [No. 22] | not that of fibroblasts | make the adhesion of MSCs possible |  |
| DRVPHSRNSIT-OH (listed as Homo sapiens) [No. 20] | not that of fibroblasts | make the adhesion of MSCs possible |  |
| LAIKNDNLVYVY-OH (listed as Homo sapiens) [No. 15] | not that of fibroblasts | make the adhesion of MSCs possible |  |
| LRE-Doa-A-OH (LRE[Doa]A-OH; reading uncertain; also: printed as LRE-Doa-A-OH; listed as Homo sapiens) [No. 9-COOH] | not that of fibroblasts | make the adhesion of MSCs possible |  |
| KRSR-DOA-A-OH (KRSR[DOA]A-OH; reading uncertain; also: printed as KRSR-DOA-A-OH; listed as Homo sapiens) [No. 37b] | not that of fibroblasts | make the adhesion of MSCs possible |  |
| YIIR-DOA-A-OH (YIIR[DOA]A-OH; reading uncertain; also: printed as YIIR-DOA-A-OH; listed as Homo sapiens) [No. 34-COOH] | not that of fibroblasts | make the adhesion of MSCs possible |  |
| tenascin-C: oligomeric glycoprotein of the extracellular matrix, immobilized on the chip |  |  | firmer |
| KREDVY-COOH (KREDVY-OH; listed as Homo sapiens) [No. 21-COOH] | not that of fibroblasts | make the adhesion of MSCs possible |  |
| LRE-OH (Leu-Arg-Glu-OH; listed as Homo sapiens) [No. 9] | not that of fibroblasts | make the adhesion of MSCs possible |  |
| GRGDSO-OH (GRGDS[Orn]-OH; N-terminus assumed; SMILES N=C(N)NCCC[C@H](NC(=O)CN)C(=O)NCC(=O)N[C@@H](CC(=O)O)C(=O)N[C@@H](CO)C(=O)N[C@@H](CCCN)C(=O)O; listed as Homo sapiens) [No. 11] | not that of fibroblasts | make the adhesion of MSCs possible |  |
| KREDVY-OH (listed as Homo sapiens) [No. 21] | not that of fibroblasts | make the adhesion of MSCs possible |  |
| WTPPRAQITGYRLTVGLTRR-OH (listed as Homo sapiens) [No. 30] | not that of fibroblasts | make the adhesion of MSCs possible |  |
| EILDV-COOH (EILDV-OH; listed as Homo sapiens) [No. 22-COOH] | not that of fibroblasts | make the adhesion of MSCs possible |  |
| GEFYFDLRLKGDK-OH (listed as Homo sapiens) [No. 5] | not that of fibroblasts | make the adhesion of MSCs possible |  |
| DVISLYNFKHIY-OH (listed as Homo sapiens) [No. 16] | not that of fibroblasts | make the adhesion of MSCs possible |  |
